The source of these data is ChEMBL document CHEMBL1133384, “Synthesis and study of a new adenine-acridine tandem, inhibitor of exonuclease III” (Bioorg Med Chem Lett, 2000).

For one experiment, the system named is L1210. The experiment can be described thus: The cytotoxicity against murine leukemia L1210. Type of experiment: functional, cell-based. The settings on record: Mus musculus.
A further experiment relates to Nucleic Acid. The experiment can be described thus: Compound was evaluated for its binding affinity constant for native calf thymus DNA in competition experiment with ethium bromide. Format: nucleic-acid assay, Bos taurus.

As a reminder, the IC50 is the concentration that inhibits the measured activity by half. High values mean weaker potency, low ones greater potency. As for `COc1ccc2nc3cc(Cl)ccc3c(NCCCN(CCC(=O)NCCn3cnc4c(N)ncnc43)C(=N)N)c2c1.Cl`, the concentration for half-maximal inhibition (IC50) in the experiment on L1210 is above 100 µM. In the experiment with Nucleic Acid, this compound came in with a Ka of 200000 M⁻¹.
